Results reported in patent publication US12351595B2, “Composition comprising O-cyclic phytosphingosine-1-phosphate for preventing or treating Parkinson's disease” (AXCESO BIOPHARMA CO., LTD., priority 2019, dated 2025).

Columns and labels:
[1] = system: SH-SY5Y nerve cells; assay: Rotenone-treated Parkinson's disease cell model, necrotic cell death (LDH detection kit); type: cell-based, human
Description: Rotenone is a substance widely used in cell models to induce Parkinson's disease. It is well known that when a nerve cell is treated with rotenone, mitochondrial function is destroyed, and oxidative stress is induced to cause death of the nerve cell.
The SH-SY5Y nerve cell culture medium was treated with cP1P drug at concentrations of 100 nM and 1000 nM, respectively, and cultured for 24 hours. Then, rotenone (Sigma) was dissolved in DMSO, diluted to a final concentration of 2 μM, and added to the SH-SY5Y nerve cell culture medium. The SH-SY5Y nerve cells were cultured for an additional 24 hours. SH-SY5Y nerve cells were obtained and cultured in the same manner as in Example 1.
Necrotic cell death was measured for the cultured SH-SY5Y nerve cells using a lactate dehydrogenase (LDH) detection kit (BioVision).
For comparison, the necrotic cell death was also measured for the control group that was treated only with DMSO without cP1P drug and rotenone, and the control group that was treated only with diluted rotenone solution without cP1P drug. In addition, the necrotic cell death was measured for the treatment of the nerve cells with the cP1P drug at concentrations of 100 nM and 1000 nM, respectively.

[2] = system: SH-SY5Y cells; assay: MPP+-treated Parkinson's disease cell model, cell survival (MTT assay); type: cell-based, human
Description: To prepare a Parkinson's disease cell model by inducing oxidative stress with MPP^+ (1-methyl-4-phenylpyridinium iodide, Sigma), MPP^+ was dissolved in a phosphate buffer solution, diluted to a final concentration of 3 mM, and added to a nerve cell culture medium. To confirm the efficacy of the cP1P drug in the MPP^+ environment, SH-SY5Y cells were pretreated with cP1P drug at concentrations of 10 nM, 100 nM, and 1000 nM, respectively, for 1 hour, and then exposed to oxidative stress by treatment with 3 mM MPP^+ for 24 hours. The efficacy of the cP1P drug on the survival of SH-SY5Y cells after 24 hours of exposure to oxidative stress was determined by MTT assay.

[3] = system: Tyrosine hydroxylase (TH); assay: Tyrosine hydroxylase (TH) expression in SH-SY5Y nerve cells (immunohistochemistry and western blot); type: cell-based, human; settings: 24 hours
Description: Tyrosine hydroxylase (TH) is an enzyme that converts amino acid tyrosine into L-DOPA, a precursor of dopamine, and plays an important role in the formation of dopamine in nerve cells.
In order to confirm the efficacy of the cP1P drug on TH expression in SH-SY5Y nerve cells, SH-SY5Y nerve cell culture was treated with the cP1P drug at concentrations of 10 nM and 100 nM, respectively. TH expression was determined by immunohistochemistry and western blot after 24 hours.

[4] = system: SH-SY5Y human nerve cell line; assay: Proliferation of SH-SY5Y human nerve cells (MTT assay); type: cell-based; settings: 48 hours
Description: The SH-SY5Y human nerve cell line purchased from ATCC was used as a nerve cell line to evaluate the effect of the cP1P drug on the proliferation of dopaminergic human nerve cells. Dulbeco's Modified Eagle's Media/high glucose (with 10% FBS, 0.5% P/S) was used as a medium for culturing nerve cells, and the nerve cells were cultured at 37° C. in 5% CO2 incubator.
In order to observe the effect of cP1P drug on the proliferation of the dopaminergic human nerve cells, SH-SY5Y cells were treated with cP1P drug at concentrations of 10 nM, 100 nM and 1000 nM, respectively, and cultured for 48 hours. MTT assay (Molecular Probes) was performed according to the manufacturer's method to measure the cell proliferation rate.

Compound: C=C(C)[C@H]1Cc2c(ccc3c2O[C@@H]2COc4cc(OC)c(OC)cc4[C@@H]2C3=O)O1 [rotenone, reference compound]
- degree of nerve cell death ([1]; rotenone 2 μM only, 24 hours): exceed 30%

Compound: C[n+]1ccc(-c2ccccc2)cc1.[I-] [MPP^+, 1-methyl-4-phenylpyridinium iodide, reference compound]
- nerve cell death ([2]; MPP+ 3 mM only, 24 hours): the nerve cells were killed

Compound: CCCCCCCCCCCCCC[C@@H](O)[C@H]1OP(=O)(O)OC[C@@H]1N [cP1P, O-cyclic phytosphingosine-1-phosphate]
- expression of the TH enzyme ([3]; 10 nM): increased
- expression of the TH enzyme ([3]; 100 nM): increased
- effect on the proliferation of SH-SY5Y cells ([4]; 10 nM): effect on the proliferation of SH-SY5Y cells appeared
- effect on the nerve cell proliferation ([4]; 100 nM (of 10, 100, 1000 nM)): highest
- degree of cell death ([1]; cP1P 100 nM and 1000 nM alone, without rotenone): reduced the degree of cell death compared to the control group treated only with DMSO
- nerve cell death ([1]; cP1P 100 nM and 1000 nM for 24 hours, then rotenone 2 μM for 24 hours): inhibited to the level equivalent to that of DMSO treatment without rotenone
- nerve cell death ([2]; cP1P 100 nM pretreatment 1 hour, then 3 mM MPP+ 24 hours): significantly reduced
- nerve cell death ([2]; cP1P pretreatment (10, 100, 1000 nM) 1 hour, then 3 mM MPP+ 24 hours): significantly reduced
